A word on the pIC50: it is −log10 of the IC50, conventionally taken in molar units. Read a high pIC50 as a low IC50.

pIC50: −log10 of the molar value.

The target of this test is T1, IRAK3 (Homo sapiens, UniProt Q9Y616).
T1 sequence (Q9Y616 1-596): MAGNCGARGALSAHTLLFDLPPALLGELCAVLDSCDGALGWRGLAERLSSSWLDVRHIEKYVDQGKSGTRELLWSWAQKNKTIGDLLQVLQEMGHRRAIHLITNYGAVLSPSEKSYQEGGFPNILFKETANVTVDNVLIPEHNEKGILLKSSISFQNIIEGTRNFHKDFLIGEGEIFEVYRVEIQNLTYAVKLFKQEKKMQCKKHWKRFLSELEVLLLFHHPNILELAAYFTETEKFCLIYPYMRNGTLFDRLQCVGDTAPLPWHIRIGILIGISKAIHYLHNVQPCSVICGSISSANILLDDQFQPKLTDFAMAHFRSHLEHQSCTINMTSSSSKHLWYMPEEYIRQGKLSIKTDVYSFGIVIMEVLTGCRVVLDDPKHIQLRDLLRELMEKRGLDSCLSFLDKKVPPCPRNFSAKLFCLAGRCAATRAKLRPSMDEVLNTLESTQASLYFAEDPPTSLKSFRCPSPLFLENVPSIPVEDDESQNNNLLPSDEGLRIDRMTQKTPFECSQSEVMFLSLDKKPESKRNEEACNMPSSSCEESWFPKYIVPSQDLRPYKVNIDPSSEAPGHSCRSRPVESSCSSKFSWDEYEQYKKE
As to the kind of experiment: IRAK3 biochemical binding assay (LanthaScreen Eu Kinase Binding, TR-FRET). To be noted: 10 nM tracer, 10 nM IRAK3, 1 hour at room temperature. The method, then: Example B3. IRAK3 Biochemical Binding Assay
The LanthaScreen® Eu Kinase Binding assay was performed as described by the vendor (ThermoFisher Scientific Waltham, MA). Briefly, 100× solutions of compound were prepared in DMSO via serial dilution of the 10 mM stock solution in a 384-well reagent plate using 3-fold intervals to achieve final concentrations. 1 μL of the compound dilution series were added to the corresponding wells of a 384-well reagent plate containing 32.3 μL of 1× buffer (50 mM HEPES pH 7.4, […], 1 mM EGTA, 0.01% Brij-35). 5 μL of the buffer diluted compounds were transferred to the corresponding wells of a 384-well assay plate. 5 μL of 3× tracer was transferred to each well of the assay plate for a final tracer concentration of 10 nM. Finally, 5 μL of the 3× Eu-Anti-GST and IRAK3 mix was transferred to each well for a final concentration of 2 nM and 10 nM, respectively. Reactions were allowed to incubate for 1 hour at room temperature. TR-FRET signal of the interaction ([…]/λem 665/λem 615) was read at room temperature with a delay time of 100 μs and an integration time of 200 μs using an Envision plate reader. Background corrected emission signal ratios at each compound concentration were used to calculate percentage of inhibition (% o Inhibition). Plots of % Inhibition versus inhibitor concentrations were fit according to a dose-response equation (Eq. 1) to generate IC50 and Hill slope values using Dotmatics software (Dotmatics, Bishops Storford, Hertfordshire, England).
Using these assays, IC50, Dmax, EC50, and DC50 values of the following compounds were determined. Dmax is defined as the maximum percent degradation achieved and DC50 is the concentration at which 50% degradation is achieved.
On the technique in general: In TR-FRET formats the signal depends on donor and acceptor labels being close together.

In turn, `Cc1ncsc1-c1ccc(CNC(=O)[C@@H]2C[C@@H](O)CN2C(=O)[C@@H](NC(=O)COCCOCCN2CCC(n3cc(-c4cnc(N)c(O[C@H](C)c5c(Cl)ccc(F)c5Cl)c4)cn3)CC2)C(C)(C)C)cc1` [Compound 2, (2S,4R)-1-((S)-2-(2-(2-(2-(4-(4-(6-amino-5-((R)-1-(2,6-dichloro-3-fluorophenyl)ethoxy)pyridin-3-yl)-1H-pyrazol-1-yl)piperidin-1-yl)ethoxy)ethoxy)acetamido)-3,3-dimethylbutanoyl)-4-hydroxy-N-(4-(4-methylthiazol-5-yl)benzyl)pyrrolidine-2-carboxamide] showed a pIC50 of 6.86.

Regarding `C[C@@H](Oc1cc(-c2cnn(C3CCN(CCOCCOCCNC(=O)COc4ccc5c(c4)C(=O)N(C4CCC(=O)NC4=O)C5=O)CC3)c2)cnc1N)c1c(Cl)ccc(F)c1Cl` (stereo partly drawn) [Compound 15, N-(2-(2-(2-(4-(4-(6-amino-5-((R)-1-(2,6-dichloro-3-fluorophenyl)ethoxy)pyridin-3-yl)-1H-pyrazol-1-yl)piperidin-1-yl)ethoxy)ethoxy)ethyl)-2-((2-(2,6-dioxopiperidin-3-yl)-1,3-dioxoisoindolin-5-yl)oxy)acetamide], the pIC50 was 7.19.

In turn, `C[C@@H](Oc1cc(-c2cnn(C3CCN(C4CCC5(CC4)CCN(C(=O)c4cccc6c4CN(C4CCC(=O)NC4=O)C6=O)CC5)CC3)c2)cnc1N)c1c(Cl)ccc(F)c1Cl` (stereo partly drawn) [Compound 21, 3-(4-(9-(4-(4-(6-amino-5-((R)-1-(2,6-dichloro-3-fluorophenyl)ethoxy)pyridin-3-yl)-1H-pyrazol-1-yl)piperidin-1-yl)-3-azaspiro[5.5]undecane-3-carbonyl)-1-oxoisoindolin-2-yl)piperidine-2,6-dione] showed a negative-log IC50 (pIC50) of 8.70.

The molecule `Cc1ncsc1-c1ccc(CNC(=O)[C@@H]2C[C@@H](O)CN2C(=O)[C@@H](NC(=O)COCCOCCOCCOCCN2CCC(n3cc(-c4cnc(N)c(O[C@H](C)c5c(Cl)ccc(F)c5Cl)c4)cn3)CC2)C(C)(C)C)cc1` [Compound 4, (2S,4R)-1-((S)-17-(4-(4-(6-amino-5-((R)-1-(2,6-dichloro-3-fluorophenyl)ethoxy)pyridin-3-yl)-1H-pyrazol-1-yl)piperidin-1-yl)-2-(tert-butyl)-4-oxo-6,9,12,15-tetraoxa-3-azaheptadecanoyl)-4-hydroxy-N-(4-(4-methylthiazol-5-yl)benzyl)pyrrolidine-2-carboxamide] had a pIC50 of 6.92.

Molecule `C[C@@H](Oc1cc(-c2cnn(C3CCN(CCOCCOCCOCCOCCNC(=O)COc4ccc5c(c4)C(=O)N(C4CCC(=O)NC4=O)C5=O)CC3)c2)cnc1N)c1c(Cl)ccc(F)c1Cl` (stereo partly drawn) [Compound 17, N-(14-(4-(4-(6-amino-5-((R)-1-(2,6-dichloro-3-fluorophenyl)ethoxy)pyridin-3-yl)-1H-pyrazol-1-yl)piperidin-1-yl)-3,6,9,12-tetraoxatetradecyl)-2-((2-(2,6-dioxopiperidin-3-yl)-1,3-dioxoisoindolin-5-yl)oxy)acetamide] showed a pIC50 of 7.00.

In turn, `C[C@@H](Oc1cc(-c2cnn(C3CCN(C4CCC5(CC4)CCN(C(=O)c4ccc6c(c4)C(=O)N(C4CCC(=O)NC4=O)C6=O)CC5)CC3)c2)cnc1N)c1c(Cl)ccc(F)c1Cl` (stereo partly drawn) [Compound 18, 5-(9-(4-(4-(6-amino-5-((R)-1-(2,6-dichloro-3-fluorophenyl)ethoxy)pyridin-3-yl)-1H-pyrazol-1-yl)piperidin-1-yl)-3-azaspiro[5.5]undecane-3-carbonyl)-2-(2,6-dioxopiperidin-3-yl)isoindoline-1,3-dione] gave a negative-log IC50 (pIC50) of 7.92.

`C[C@@H](Oc1cc(-c2cnn(C3CCN(CCOCCOCCNC(=O)COc4cccc5c4C(=O)N(C4CCC(=O)NC4=O)C5=O)CC3)c2)cnc1N)c1c(Cl)ccc(F)c1Cl` (stereo partly drawn) [Compound 10, N-(2-(2-(2-(4-(4-(6-amino-5-((R)-1-(2,6-dichloro-3-fluorophenyl)ethoxy)pyridin-3-yl)-1H-pyrazol-1-yl)piperidin-1-yl)ethoxy)ethoxy)ethyl)-2-((2-(2,6-dioxopiperidin-3-yl)-1,3-dioxoisoindolin-4-yl)oxy)acetamide] had a pIC50 of 7.57.
